# Values of other authors in US20140011766A1, “ANTIMICROBIAL COMPOSITIONS AND METHODS” (priority 2012, published 2014).
# Test system: pathogens
# Settings: except for spores (specifically C. difficile spores)
smiles,measurement,value
CCO [Ethanol],killing of pathogens,99.99%
